Drawing on PubChem BioAssay (NCI), this text covers TGI for 11 compounds.

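Assay format: 96-well plates, 48-hour exposure. TGI is the concentration that stops growth completely.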 Where a SMILES comes first, the peptide text is derived from it. Bridges are numbered along the chain shown (N, C = ends).

Test systems include A498 renal; HCT-116 colon; M14 melanoma; MDA-MB-231 breast; PC-3 prostate; SF-268 CNS; SK-MEL-2 melanoma; T-47D breast; CAKI-1 renal; COLO 205 colon; SNB-75 CNS.
Holding throughout (test): DTP human tumour cell line panel, 48 h

As a reminder, the TGI is the concentration at which net growth stops. High values mean lower sensitivity of the cells, low ones greater sensitivity of the cells. `COc1c(NC(C)=O)c2ccccc2c2ccccc12`: the concentration for total growth inhibition (TGI) in the assay with A498 renal, with HCT-116 colon, with M14 melanoma, in the assay with MDA-MB-231 breast, in the assay on PC-3 prostate and with SF-268 CNS was > 100 µM in each case. Also, the concentration for total growth inhibition (TGI) with SK-MEL-2 melanoma and in the assay on T-47D breast was > 100 µM throughout.
Regarding `COc1ccc(-c2c(/C=N/OCC(=O)O)c3sc4ccccc4n3c2/C=N/OCC(=O)O)cc1`, the TGI in the assay on CAKI-1 renal, with COLO 205 colon, with HCT-116 colon, in the assay on M14 melanoma, in the assay with MDA-MB-231 breast and with PC-3 prostate was > 50 µM in each case. Besides, the TGI with SF-268 CNS, with SK-MEL-2 melanoma, in the assay with SNB-75 CNS and in the assay with T-47D breast was > 50 µM each time.
In the case of `COC(=O)c1ccc(C)cc1C1CN=NC12Cc1cccc(C)c1C2=O` (stereo unspecified), the concentration for total growth inhibition (TGI) in the assay with CAKI-1 renal is > 100 µM; with COLO 205 colon it was > 100 µM; in the assay with HCT-116 colon, > 100 µM; in the assay on M14 melanoma, 42.1 µM; in the assay on MDA-MB-231 breast, > 100 µM; in the assay on PC-3 prostate, 70.6 µM. Further, the TGI in the assay with SF-268 CNS was > 100 µM; in the assay with SK-MEL-2 melanoma, 63.8 µM; in the assay on SNB-75 CNS, > 100 µM; with T-47D breast it was 85.8 µM.
Take `C#CC(O)/C=C/C(O)CCCC(O)CC#CC(O)C#CCCCCC(O)/C=C/CCCC(=O)CCCCCCCCCCCCCCCC(O)C(O)C#CC(=O)O` (stereo unspecified): the TGI in the assay with CAKI-1 renal, in the assay with COLO 205 colon, with HCT-116 colon, in the assay on M14 melanoma, in the assay with MDA-MB-231 breast and in the assay with PC-3 prostate was > 25 µM each time. Further, the TGI in the assay with SF-268 CNS, in the assay with SK-MEL-2 melanoma, in the assay with SNB-75 CNS and in the assay with T-47D breast was > 25 µM throughout.
Take `O=C(Oc1cncc(Cl)c1)c1cc2ccccc2sc1=O`: the TGI in the assay with CAKI-1 renal, in the assay on COLO 205 colon, in the assay on HCT-116 colon, with M14 melanoma, with MDA-MB-231 breast and in the assay with PC-3 prostate was > 100 µM in each case. Besides, the TGI in the assay on SF-268 CNS is > 100 µM; in the assay on SK-MEL-2 melanoma, 90.7 µM; in the assay on SNB-75 CNS it was > 100 µM; with T-47D breast it was > 100 µM.
As for `COC(=O)C1CCC(=O)NCCCCC(NC(=O)C(N)CC(=O)O)C(=O)N1` (stereo not drawn) (H-Asp-Lys-Glu-OMe; lactam 2-3; configuration not given here), the total growth inhibition concentration (TGI) in the assay with CAKI-1 renal, in the assay with COLO 205 colon, in the assay on HCT-116 colon, in the assay with M14 melanoma, with MDA-MB-231 breast and in the assay on PC-3 prostate was > 100 µM throughout. Also, the concentration for total growth inhibition (TGI) with SF-268 CNS, in the assay with SK-MEL-2 melanoma, with SNB-75 CNS and in the assay with T-47D breast was > 100 µM in each case.
As for `CC1(C)Cc2ccccc2C(C)(Cl)C(=O)N1` (stereo unspecified), the TGI in the assay with A498 renal, in the assay with CAKI-1 renal, with COLO 205 colon, with HCT-116 colon, in the assay on M14 melanoma and in the assay with MDA-MB-231 breast was > 10 µM throughout. Besides, the total growth inhibition concentration (TGI) with PC-3 prostate, in the assay with SF-268 CNS and with T-47D breast was > 10 µM in each case.
Turning to `CCOC(=O)/C=C(/C(=O)OCC)n1cc(C)c(=O)n(Cc2cn(CCCCOC(C)=O)nn2)c1=O`, the TGI with CAKI-1 renal was 6.46 µM; with COLO 205 colon, > 100 µM; in the assay with HCT-116 colon it was 65 µM; in the assay on MDA-MB-231 breast, 65.4 µM; with PC-3 prostate it was 40.3 µM; in the assay on SF-268 CNS, 38.7 µM. For the same compound, the TGI is 45.1 µM in the assay with SK-MEL-2 melanoma, 32.6 µM in the assay on SNB-75 CNS and > 100 µM in the assay with T-47D breast.
As to `COc1ccc(Cn2c(=O)c(OS(=O)(=O)C(F)(F)F)c(C)c3cc4ccccc4cc32)cc1`, the TGI with CAKI-1 renal, in the assay with COLO 205 colon, in the assay on HCT-116 colon, with M14 melanoma, in the assay on MDA-MB-231 breast and in the assay on PC-3 prostate was > 100 µM in each case. Moreover, the TGI in the assay with SF-268 CNS, with SK-MEL-2 melanoma, in the assay with SNB-75 CNS and with T-47D breast was > 100 µM in each case.
On to `O=C(NNC(=O)c1ccncc1)C(=O)Nc1cc(Cl)c(Cl)cc1Cl`, for which the TGI with A498 renal, in the assay on CAKI-1 renal, in the assay on HCT-116 colon, with M14 melanoma, in the assay with MDA-MB-231 breast and with PC-3 prostate was > 100 µM each time. The concentration for total growth inhibition (TGI) in the assay on SF-268 CNS, in the assay with SK-MEL-2 melanoma, with SNB-75 CNS and in the assay with T-47D breast was > 100 µM in each case.
Consider `C/C(=N\Nc1nc2cc(F)ccc2s1)c1ccccn1`, for which the TGI in the assay with A498 renal is > 100 µM; in the assay on CAKI-1 renal it was 5.67 µM; in the assay with HCT-116 colon, 13.2 µM; in the assay on M14 melanoma, 4.07 µM; in the assay on MDA-MB-231 breast, > 45.1 µM; in the assay with PC-3 prostate it was 10.4 µM. Moreover, the TGI was 1.65 µM with SF-268 CNS, 7.33 µM with SK-MEL-2 melanoma, 4.68 µM with SNB-75 CNS and > 100 µM in the assay on T-47D breast.
